These molecules were tested on CAL-120 (assay: normalised response (% of control), CellTiter-Glo; higher = more viable cells (100 = DMSO, 0 = benzethonium chloride kill control)). Conditions: incubation time: 72 h.
Outline: (§1)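 Values are normalised signals, each belonging to one concentration of the series. Breast cancer cells (20 µl suspension) were seeded into 384-well plates with compound at 5 concentrations in 10-fold steps over a compound-specific 10,000-fold range and incubated 72 h. Readouts were CellTox Green fluorescence (485/520 nm), then CellTiter-Glo luminescence after 10 min at room temperature, with each plate set to 0.1 % DMSO as 100 and a positive kill control as 0.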

Row | SMILES | normalised response [%]
1 | COc1ccc(S(=O)(=O)Nc2cccnc2Nc2ccc(O)cc2)cc1 [ABT-751] (1 nM) | 95.8
2 | Cc1cc(Nc2nc(N[C@@H](C)c3ncc(F)cn3)ncc2Cl)[nH]n1 [AZD1480] (0.1 nM) | 100
3 | CNC(=O)c1ccccc1Sc1ccc2c(/C=C/c3ccccn3)n[nH]c2c1 [Axitinib] (1 nM) | 104
4 | CC(O)(CS(=O)(=O)c1ccc(F)cc1)C(=O)Nc1ccc(C#N)c(C(F)(F)F)c1 (stereo unspecified) [Bicalutamide] (1 nM) | 107

Each molecule was assayed on HCC1937 in the same assay as above. Conditions: incubation time: 72 h.
Outline: as §1

Row | SMILES | normalised response [%]
5 | COc1ccc(S(=O)(=O)Nc2cccnc2Nc2ccc(O)cc2)cc1 [ABT-751] (1 nM) | 96.5
6 | Cc1cc(Nc2nc(N[C@@H](C)c3ncc(F)cn3)ncc2Cl)[nH]n1 [AZD1480] (0.1 nM) | 102
7 | CNC(=O)c1ccccc1Sc1ccc2c(/C=C/c3ccccn3)n[nH]c2c1 [Axitinib] (1 nM) | 107
8 | CC(O)(CS(=O)(=O)c1ccc(F)cc1)C(=O)Nc1ccc(C#N)c(C(F)(F)F)c1 (stereo unspecified) [Bicalutamide] (1 nM) | 101

The molecules below were run on SK-BR-3 in the same assay as above. Conditions: incubation time: 72 h.
Outline: as §1

Row | SMILES | normalised response [%]
9 | COc1ccc(S(=O)(=O)Nc2cccnc2Nc2ccc(O)cc2)cc1 [ABT-751] (1 nM) | 84.4
10 | Cc1cc(Nc2nc(N[C@@H](C)c3ncc(F)cn3)ncc2Cl)[nH]n1 [AZD1480] (0.1 nM) | 98.7
11 | CNC(=O)c1ccccc1Sc1ccc2c(/C=C/c3ccccn3)n[nH]c2c1 [Axitinib] (1 nM) | 109
12 | CC(O)(CS(=O)(=O)c1ccc(F)cc1)C(=O)Nc1ccc(C#N)c(C(F)(F)F)c1 (stereo unspecified) [Bicalutamide] (1 nM) | 106

These molecules were tested on HCC1599 in the same assay as above. Conditions: incubation time: 72 h.
Outline: as §1

Row | SMILES | normalised response [%]
13 | COc1ccc(S(=O)(=O)Nc2cccnc2Nc2ccc(O)cc2)cc1 [ABT-751] (1 nM) | 95.8
14 | Cc1cc(Nc2nc(N[C@@H](C)c3ncc(F)cn3)ncc2Cl)[nH]n1 [AZD1480] (0.1 nM) | 78.9
15 | CNC(=O)c1ccccc1Sc1ccc2c(/C=C/c3ccccn3)n[nH]c2c1 [Axitinib] (1 nM) | 103
16 | CC(O)(CS(=O)(=O)c1ccc(F)cc1)C(=O)Nc1ccc(C#N)c(C(F)(F)F)c1 (stereo unspecified) [Bicalutamide] (1 nM) | 109

These molecules were tested on DU-4475 in the same assay as above. Conditions: incubation time: 72 h.
Outline: as §1

Row | SMILES | normalised response [%]
17 | COc1ccc(S(=O)(=O)Nc2cccnc2Nc2ccc(O)cc2)cc1 [ABT-751] (1 nM) | 103
18 | Cc1cc(Nc2nc(N[C@@H](C)c3ncc(F)cn3)ncc2Cl)[nH]n1 [AZD1480] (0.1 nM) | 97.2
19 | CNC(=O)c1ccccc1Sc1ccc2c(/C=C/c3ccccn3)n[nH]c2c1 [Axitinib] (1 nM) | 104
20 | CC(O)(CS(=O)(=O)c1ccc(F)cc1)C(=O)Nc1ccc(C#N)c(C(F)(F)F)c1 (stereo unspecified) [Bicalutamide] (1 nM) | 99

The molecules below were run on MDA-MB-436 in the same assay as above. Conditions: incubation time: 72 h.
Outline: as §1

Row | SMILES | normalised response [%]
21 | COc1ccc(S(=O)(=O)Nc2cccnc2Nc2ccc(O)cc2)cc1 [ABT-751] (1 nM) | 93
22 | Cc1cc(Nc2nc(N[C@@H](C)c3ncc(F)cn3)ncc2Cl)[nH]n1 [AZD1480] (0.1 nM) | 104
23 | CNC(=O)c1ccccc1Sc1ccc2c(/C=C/c3ccccn3)n[nH]c2c1 [Axitinib] (1 nM) | 95.3
24 | CC(O)(CS(=O)(=O)c1ccc(F)cc1)C(=O)Nc1ccc(C#N)c(C(F)(F)F)c1 (stereo unspecified) [Bicalutamide] (1 nM) | 104

These molecules were tested on CAL-51 in the same assay as above. Conditions: incubation time: 72 h.
Outline: as §1

Row | SMILES | normalised response [%]
25 | COc1ccc(S(=O)(=O)Nc2cccnc2Nc2ccc(O)cc2)cc1 [ABT-751] (1 nM) | 108
26 | Cc1cc(Nc2nc(N[C@@H](C)c3ncc(F)cn3)ncc2Cl)[nH]n1 [AZD1480] (0.1 nM) | 117
27 | CNC(=O)c1ccccc1Sc1ccc2c(/C=C/c3ccccn3)n[nH]c2c1 [Axitinib] (1 nM) | 78.7
28 | CC(O)(CS(=O)(=O)c1ccc(F)cc1)C(=O)Nc1ccc(C#N)c(C(F)(F)F)c1 (stereo unspecified) [Bicalutamide] (1 nM) | 114

These molecules were tested on CAL-85-1 in the same assay as above. Conditions: incubation time: 72 h.
Outline: as §1

Row | SMILES | normalised response [%]
29 | COc1ccc(S(=O)(=O)Nc2cccnc2Nc2ccc(O)cc2)cc1 [ABT-751] (1 nM) | 94.6
30 | Cc1cc(Nc2nc(N[C@@H](C)c3ncc(F)cn3)ncc2Cl)[nH]n1 [AZD1480] (0.1 nM) | 102
31 | CNC(=O)c1ccccc1Sc1ccc2c(/C=C/c3ccccn3)n[nH]c2c1 [Axitinib] (1 nM) | 99.8
32 | CC(O)(CS(=O)(=O)c1ccc(F)cc1)C(=O)Nc1ccc(C#N)c(C(F)(F)F)c1 (stereo unspecified) [Bicalutamide] (1 nM) | 104

These molecules were tested on HCC1143 in the same assay as above. Conditions: incubation time: 72 h.
Outline: as §1

Row | SMILES | normalised response [%]
33 | COc1ccc(S(=O)(=O)Nc2cccnc2Nc2ccc(O)cc2)cc1 [ABT-751] (1 nM) | 96.1
34 | Cc1cc(Nc2nc(N[C@@H](C)c3ncc(F)cn3)ncc2Cl)[nH]n1 [AZD1480] (0.1 nM) | 96.7
35 | CNC(=O)c1ccccc1Sc1ccc2c(/C=C/c3ccccn3)n[nH]c2c1 [Axitinib] (1 nM) | 102
36 | CC(O)(CS(=O)(=O)c1ccc(F)cc1)C(=O)Nc1ccc(C#N)c(C(F)(F)F)c1 (stereo unspecified) [Bicalutamide] (1 nM) | 105

The molecules below were run on MDA-MB-231 in the same assay as above. Conditions: incubation time: 72 h.
Outline: as §1

Row | SMILES | normalised response [%]
37 | COc1ccc(S(=O)(=O)Nc2cccnc2Nc2ccc(O)cc2)cc1 [ABT-751] (1 nM) | 104
38 | Cc1cc(Nc2nc(N[C@@H](C)c3ncc(F)cn3)ncc2Cl)[nH]n1 [AZD1480] (0.1 nM) | 98.3
39 | CNC(=O)c1ccccc1Sc1ccc2c(/C=C/c3ccccn3)n[nH]c2c1 [Axitinib] (1 nM) | 111
40 | CC(O)(CS(=O)(=O)c1ccc(F)cc1)C(=O)Nc1ccc(C#N)c(C(F)(F)F)c1 (stereo unspecified) [Bicalutamide] (1 nM) | 104

These molecules were tested on MDA-MB-468 in the same assay as above. Conditions: incubation time: 72 h.
Outline: as §1

Row | SMILES | normalised response [%]
41 | COc1ccc(S(=O)(=O)Nc2cccnc2Nc2ccc(O)cc2)cc1 [ABT-751] (1 nM) | 98.4
42 | Cc1cc(Nc2nc(N[C@@H](C)c3ncc(F)cn3)ncc2Cl)[nH]n1 [AZD1480] (0.1 nM) | 94.8
43 | CNC(=O)c1ccccc1Sc1ccc2c(/C=C/c3ccccn3)n[nH]c2c1 [Axitinib] (1 nM) | 105
44 | CC(O)(CS(=O)(=O)c1ccc(F)cc1)C(=O)Nc1ccc(C#N)c(C(F)(F)F)c1 (stereo unspecified) [Bicalutamide] (1 nM) | 107

These molecules were tested on Hs578T in the same assay as above. Conditions: incubation time: 72 h.
Outline: as §1

Row | SMILES | normalised response [%]
45 | COc1ccc(S(=O)(=O)Nc2cccnc2Nc2ccc(O)cc2)cc1 [ABT-751] (1 nM) | 101
46 | Cc1cc(Nc2nc(N[C@@H](C)c3ncc(F)cn3)ncc2Cl)[nH]n1 [AZD1480] (0.1 nM) | 96.8
47 | CNC(=O)c1ccccc1Sc1ccc2c(/C=C/c3ccccn3)n[nH]c2c1 [Axitinib] (1 nM) | 98.1
48 | CC(O)(CS(=O)(=O)c1ccc(F)cc1)C(=O)Nc1ccc(C#N)c(C(F)(F)F)c1 (stereo unspecified) [Bicalutamide] (1 nM) | 99

The molecules below were run on HDQ-P1 in the same assay as above. Conditions: incubation time: 72 h.
Outline: as §1

Row | SMILES | normalised response [%]
49 | COc1ccc(S(=O)(=O)Nc2cccnc2Nc2ccc(O)cc2)cc1 [ABT-751] (1 nM) | 96.8
50 | Cc1cc(Nc2nc(N[C@@H](C)c3ncc(F)cn3)ncc2Cl)[nH]n1 [AZD1480] (0.1 nM) | 104
51 | CNC(=O)c1ccccc1Sc1ccc2c(/C=C/c3ccccn3)n[nH]c2c1 [Axitinib] (1 nM) | 105
52 | CC(O)(CS(=O)(=O)c1ccc(F)cc1)C(=O)Nc1ccc(C#N)c(C(F)(F)F)c1 (stereo unspecified) [Bicalutamide] (1 nM) | 102

The molecules below were run on MDA-MB-453 in the same assay as above. Conditions: incubation time: 72 h.
Outline: as §1

Row | SMILES | normalised response [%]
53 | COc1ccc(S(=O)(=O)Nc2cccnc2Nc2ccc(O)cc2)cc1 [ABT-751] (1 nM) | 95.2
54 | Cc1cc(Nc2nc(N[C@@H](C)c3ncc(F)cn3)ncc2Cl)[nH]n1 [AZD1480] (0.1 nM) | 101
55 | CNC(=O)c1ccccc1Sc1ccc2c(/C=C/c3ccccn3)n[nH]c2c1 [Axitinib] (1 nM) | 109
56 | CC(O)(CS(=O)(=O)c1ccc(F)cc1)C(=O)Nc1ccc(C#N)c(C(F)(F)F)c1 (stereo unspecified) [Bicalutamide] (1 nM) | 91.7

Each molecule was assayed on BT-474 in the same assay as above. Conditions: incubation time: 72 h.
Outline: as §1

Row | SMILES | normalised response [%]
57 | COc1ccc(S(=O)(=O)Nc2cccnc2Nc2ccc(O)cc2)cc1 [ABT-751] (1 nM) | 98.9
58 | Cc1cc(Nc2nc(N[C@@H](C)c3ncc(F)cn3)ncc2Cl)[nH]n1 [AZD1480] (0.1 nM) | 98.7
59 | CNC(=O)c1ccccc1Sc1ccc2c(/C=C/c3ccccn3)n[nH]c2c1 [Axitinib] (1 nM) | 98.6
60 | CC(O)(CS(=O)(=O)c1ccc(F)cc1)C(=O)Nc1ccc(C#N)c(C(F)(F)F)c1 (stereo unspecified) [Bicalutamide] (1 nM) | 110

These molecules were tested on MCF-10A in the same assay as above. Conditions: incubation time: 72 h.
Outline: as §1

Row | SMILES | normalised response [%]
61 | COc1ccc(S(=O)(=O)Nc2cccnc2Nc2ccc(O)cc2)cc1 [ABT-751] (1 nM) | 91.5

Source: the supplement of paper PMC4862054
